According to patent publication US5258398A, “Antithrombotic diaminoalkanoic acid derivatives” (Rhone-Poulenc Rorer Pharmaceuticals Inc., priority 1991, dated 1993):

What follows are compounds tested on fixed activated platelets (assay: Platelet Aggregation Assay (inhibition of fibrinogen-mediated aggregation of fixed-activated platelets)). Details: human fibrinogen 250 μg/ml, fixed thrombin-activated human platelets.
Type: cell-based
Description: (§1) The effectiveness of compounds of the present invention as inhibitors of thrombus formation and platelet aggregation may be determined by the following pharmacologic tests which evaluate the inhibition of fibrinogen-mediated platelet aggregation and fibrinogen binding to thrombin-stimulated platelets by said compounds.
(§2) The Platelet Aggregation Assay is based on that described in Blood 66 (4), 946-952 (1985). The Fibrinogen-Binding Assay is essentially that of Ruggeri, Z. M., et al., Proc. Natl. Acad. Sci. USA 83, 5708-5712 (1986) and Plow, E. F., et al., Proc. Natl. Acad. Sci., USA 82, 8057-8061 (1985).
Preparation of Fixed-Activated Platelets
Platelets are isolated from human platelet concentrates using the gel-filtration technique as described by Marguerie, G. A., et al., J. Biol. Chem. 254, 5357-5363 (1979) and Ruggeri, Z. M., et al., J. Clin. Invest. 72, 1-12 (1983). The platelets are suspended at a concentration of 2×10^8 cells/ml in a modified calcium-free Tyrode's buffer containing 127 mM sodium chloride, 2 mM magnesium chloride, 0.42 mM Na2 HPO4, 11.9 mM NaHCO3, 2.9 mM KCl, 5.5 mM glucose, 10 mM HEPES, at a pH of 7.35 and 0.35% human serum albumin (HSA). These washed platelets are activated by addition of human α-thrombin at a final concentration of 2 units/ml, followed by thrombin inhibitor I-2581 at a final concentration of 40 μM. To the activated platelets is added paraformaldehyde to a final concentration of 0.50% and this incubated at room temperature for 30 minutes. The fixed activated platelets are then collected by centrifugation at 650×g for 15 minutes. The platelet pellets are washed four times with the above Tyrode's-0.35% HSA buffer and resuspended to 2×10^8 cells/ml in the same buffer.
Platelet Aggregation Assay
The fixed activated platelets are incubated with a selected dose of the compound to be tested for platelet aggregation inhibition for one minute and aggregation initiated by addition of human fibrinogen to a final concentration of 250 μg/ml. A platelet aggregation profiler Model PAP-4 is used to record the platelet aggregation. The extent of inhibition of aggregation is expressed as the percentage of the rate of aggregation observed in the absence of inhibitor. IC50, i.e., the amount of inhibitor required to reduce the aggregation rate by 50%, is then calculated for each compound (see, for example, Plow, E. F., et al., Proc. Natl. Acad. Sci., USA 82, 8057-8061 (1985)).

IC50 [nM] | Compound
120 | N=C(N)NCCCCCCCC(=O)NC(CC(=O)O)NC(=O)CCCCCCCNC(=N)N (stereo not shown) [Example 1, N,N'-bis-(8-guanidino)octanoyl-3,3-diaminopropionic acid]
1300 | N=C(N)NCCCCCCCCC(=O)N[C@H](CC(=O)O)NC(=O)CCCCCCCNC(=N)N [Example 2, (3S)-N-(8-guanidino)octanoyl-N'-(9-guanidino)nonanoyl-3,3-diaminopropionic acid]
2800 | N=C(N)NCCCCCCC(=O)NC(CC(=O)O)NC(=O)CCCCCCNC(=N)N (stereo not shown) [Example 4, N,N'-bis-(7-guanidino)heptanoyl-3,3-diaminopropionic acid]
140 | N=C(N)NCCCCCCCCC(=O)NC(CC(=O)O)NC(=O)CCCCCCCCNC(=N)N (stereo not shown) [Example 5, N,N'-bis-(9-guanidino)nonanoyl-3,3-diaminopropionic acid]
2800 | N=C(N)NCCCCCCCCC(=O)N[C@H](CC(=O)O)NC(=O)CCCCCCNC(=N)N [Example 6, (3S)-N-(7-guanidino)heptanoyl-N'-(9-guanidino)nonanoyl-3,3-diaminopropionicacid]
740 | N=C(N)NCCCCCCCC(=O)N[C@H](CC(=O)O)NC(=O)CCCCCCNC(=N)N [Example 7, (3S)-N-(7-guanidino)heptanoyl-N'-(8-guanidino)octanoyl-3,3-diaminopropionicacid]
300 | N=C(N)NCCCCCCCCC(=O)N[C@@H](CC(=O)O)NC(=O)CCCCCCCNC(=N)N [Example 8, (3R)-N-(8-guanidino)octanoyl-N'-(9-guanidino)nonanoyl-3,3-diaminopropionic acid]
9800 | N=C(N)NCCCCCCCC(=O)N[C@H](CC(=O)O)NC(=O)[C@@H](N)CCCNC(=N)N [Example 9, (3S)-N-L-arginyl-N'-(8-guanidino)octanoyl-3,3-diaminopropionic acid]
120 | N=C(N)NCCCCCCCCC(=O)N[C@@H](CC(=O)O)NC(=O)CCCCCCNC(=N)N [Example 10, (3R)-N-(7-guanidino)heptanoyl-N'-(9-guanidino)nonanoyl-3,3-diaminopropionicacid]
320 | N=C(N)NCCCCCCCC(=O)N[C@@H](CC(=O)O)NC(=O)CCCCCCNC(=N)N [Example 11, (3R)-N-(7-guanidino)heptanoyl-N'-(8-guanidino)octanoyl-3,3-diaminopropionicacid]
2000 | CC(C)CC(=O)N[C@H](CC(=O)O)NC(=O)CCCCCCCNC(=N)N [Example 12, (3R)-N-(8-guanidino)octanoyl-N'-(3-methyl)butanoyl-3,3-diaminopropionic acid]
25000 | CC[C@@H](C)[C@@H](NC(=O)CCCCNC(=N)N)C(=O)N[C@H](CC(=O)O)NC(=O)CCCCCCCCNC(=N)N [Example 15, (3R)-N-[N-[(5-guanidino)pentanoyl]-D-isoleucyl]-N'-(9-guanidino)nonanoyl-3,3-diaminopropionic acid]
17500 | CC[C@H](C)[C@H](NC(=O)CCCCNC(=N)N)C(=O)N[C@H](CC(=O)O)NC(=O)CCCCCCCCNC(=N)N [Example 17]
> 100000 | N=C(N)NCCCCCCCC(=O)NC(CCC(=O)O)NC(=O)CCCCCCCNC(=N)N (stereo not shown) [Example 18, N,N'-bis-(8-guanidino)octanoyl-4,4-diaminobutanoic acid]

What follows are compounds tested on thrombin-stimulated platelets (assay: Fibrinogen-Binding Assay (inhibition of 125I-fibrinogen binding to platelets)). Details: 125I-labeled fibrinogen 0.176 μmol/liter (60 μg/ml); 22°-25° C., 30 minutes; read-out: Inhibition of 125I-Fibrinogen Binding to Platelet (IC50).
Description: as §1, §2
Platelets are washed free of plasma constituents by the albumin density-gradient technique of Walsh, P. N., et al., Br. J. Haematol. 281-296 (1977), as modified by Trapani-Lombardo, V., et al., J. Clin Invest. 76, 1950-1958 (1985). […] The platelet pellet is then separated from the rest of the mixture to determine platelet-bound radioactivity. Nonspecific binding is measured in mixtures containing an excess of unlabeled ligand. When binding curves are analyzed by Scatchard analysis, nonspecific binding is derived as a fitted parameter from the binding isotherm by means of a computerized program (Munson, P. J., Methods Enzymol. 92, 542-576 (1983)). […]

IC50 [nM] | Compound
70 | N=C(N)NCCCCCCCC(=O)NC(CC(=O)O)NC(=O)CCCCCCCNC(=N)N (stereo not shown) [Example 1, N,N'-bis-(8-guanidino)octanoyl-3,3-diaminopropionic acid]
1200 | N=C(N)NCCCCCCCC(=O)N[C@H](CC(=O)O)NC(=O)[C@@H](N)CCCNC(=N)N [Example 9, (3S)-N-L-arginyl-N'-(8-guanidino)octanoyl-3,3-diaminopropionic acid]
